Measurements from PubChem BioAssay AID1963960 (Molecular Pharmacology Branch, DTP, NCI, 2024).
pIC50: −log10 of the molar value.

Tested on: MDA-MB-468 spheroids with HUVEC/MSC, viability
Assay: Anticancer human tumor MDA-MB-468 cell line growth inhibition [PI3K];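 also: spheroids exposed to agents for seven days before readout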;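 as to viability, T/C: 100% = DMSO vehicle control viability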
Conditions: for pIC50: curve of first compound; for viability, T/C: stronger effect = lower value
Summary of the method: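 Viability of mixed-cell spheroids was determined after exposure to pairwise combinations, one partner being inavolisib, alpelisib, duvelisib or copanlisib. Highest tested concentration matched clinical Cmax where known and 10 microM where not, descending in half-log steps.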

[1] = second compound 0.0316 µM, first compound 0.000316 µM
[2] = second compound 0.0316 µM, first compound 0.001 µM
[3] = second compound 0.0316 µM, first compound 0.00316 µM
[4] = second compound 0.0316 µM, first compound 0.01 µM
[5] = second compound 0.0316 µM, first compound 0.0316 µM
[6] = second compound 0.0316 µM, first compound 0.1 µM
[7] = second compound 0.1 µM, first compound 0.000316 µM
[8] = second compound 0.1 µM, first compound 0.001 µM
[9] = second compound 0.1 µM, first compound 0.00316 µM
[10] = second compound 0.1 µM, first compound 0.01 µM
[11] = second compound 0.1 µM, first compound 0.0316 µM
[12] = second compound 0.1 µM, first compound 0.1 µM
[13] = second compound 0.316 µM, first compound 0.000316 µM
[14] = second compound 0.316 µM, first compound 0.001 µM
[15] = second compound 0.316 µM, first compound 0.00316 µM
[16] = second compound 0.316 µM, first compound 0.01 µM
[17] = second compound 0.316 µM, first compound 0.0316 µM
[18] = second compound 0.316 µM, first compound 0.1 µM
[19] = second compound 1 µM, first compound 0.000316 µM
[20] = second compound 1 µM, first compound 0.001 µM
[21] = second compound 1 µM, first compound 0.00316 µM
[22] = second compound 1 µM, first compound 0.01 µM
[23] = second compound 1 µM, first compound 0.0316 µM
[24] = second compound 1 µM, first compound 0.1 µM
[25] = second compound 3.16 µM, first compound 0.000316 µM
[26] = second compound 3.16 µM, first compound 0.001 µM
[27] = second compound 3.16 µM, first compound 0.00316 µM
[28] = second compound 3.16 µM, first compound 0.01 µM
[29] = second compound 3.16 µM, first compound 0.0316 µM
[30] = second compound 3.16 µM, first compound 0.1 µM
[31] = second compound 10 µM, first compound 0.000316 µM
[32] = second compound 10 µM, first compound 0.001 µM
[33] = second compound 10 µM, first compound 0.00316 µM
[34] = second compound 10 µM, first compound 0.01 µM
[35] = second compound 10 µM, first compound 0.0316 µM
[36] = second compound 10 µM, first compound 0.1 µM

## CC(=O)c1c(C)c2cnc(Nc3ccc(N4CCNCC4)cn3)nc2n(C2CCCC2)c1=O + CC(Nc1ncnc2nc[nH]c12)c1cc2cccc(Cl)c2c(=O)n1-c1ccccc1
Second compound 0.0316 µM
  pIC50: < 7.00
Second compound 0.1 µM
  pIC50: < 7.00
Second compound 0.316 µM
  pIC50: < 7.00
Second compound 1 µM
  pIC50: < 7.00
Second compound 3.16 µM
  pIC50: < 7.00
Second compound 10 µM
  pIC50: > 9.50
[1]
  viability, T/C: 92.6%
[2]
  viability, T/C: 93.9%
[3]
  viability, T/C: 84.6%
[4]
  viability, T/C: 103%
[5]
  viability, T/C: 99.7%
[6]
  viability, T/C: 88.1%
[7]
  viability, T/C: 88.6%
[8]
  viability, T/C: 91.2%
[9]
  viability, T/C: 84.1%
[10]
  viability, T/C: 92.7%
[11]
  viability, T/C: 80%
[12]
  viability, T/C: 86.4%
[13]
  viability, T/C: 84.7%
[14]
  viability, T/C: 78.9%
[15]
  viability, T/C: 81.3%
[16]
  viability, T/C: 72.8%
[17]
  viability, T/C: 90%
[18]
  viability, T/C: 78.5%
[19]
  viability, T/C: 66.4%
[20]
  viability, T/C: 71.4%
[21]
  viability, T/C: 59.3%
[22]
  viability, T/C: 83.3%
[23]
  viability, T/C: 76.2%
[24]
  viability, T/C: 62.8%
[25]
  viability, T/C: 59.6%
[26]
  viability, T/C: 53.1%
[27]
  viability, T/C: 62.3%
[28]
  viability, T/C: 58.1%
[29]
  viability, T/C: 67.2%
[30]
  viability, T/C: 58.8%
[31]
  viability, T/C: 38.9%
[32]
  viability, T/C: 38.5%
[33]
  viability, T/C: 39.3%
[34]
  viability, T/C: 46.7%
[35]
  viability, T/C: 45.7%
[36]
  viability, T/C: 46.1%

## CC(C)n1nc(-c2ccc3oc(N)nc3c2)c2c(N)ncnc21 + CC(Nc1ncnc2nc[nH]c12)c1cc2cccc(Cl)c2c(=O)n1-c1ccccc1
Second compound 0.0316 µM
  pIC50: 7.38
Second compound 0.1 µM
  pIC50: 7.46
Second compound 0.316 µM
  pIC50: 7.42
Second compound 1 µM
  pIC50: 7.62
Second compound 3.16 µM
  pIC50: 7.95
Second compound 10 µM
  pIC50: > 9.50
[1]
  viability, T/C: 81.5%
[2]
  viability, T/C: 81.4%
[3]
  viability, T/C: 96.1%
[4]
  viability, T/C: 82.2%
[5]
  viability, T/C: 60%
[6]
  viability, T/C: 19.5%
[7]
  viability, T/C: 77.6%
[8]
  viability, T/C: 91.5%
[9]
  viability, T/C: 77.9%
[10]
  viability, T/C: 66%
[11]
  viability, T/C: 54.4%
[12]
  viability, T/C: 19.8%
[13]
  viability, T/C: 91.6%
[14]
  viability, T/C: 59.7%
[15]
  viability, T/C: 77.4%
[16]
  viability, T/C: 73.8%
[17]
  viability, T/C: 55.2%
[18]
  viability, T/C: 17.4%
[19]
  viability, T/C: 69.3%
[20]
  viability, T/C: 68.4%
[21]
  viability, T/C: 64.1%
[22]
  viability, T/C: 57%
[23]
  viability, T/C: 49.6%
[24]
  viability, T/C: 15.8%
[25]
  viability, T/C: 50.2%
[26]
  viability, T/C: 54.8%
[27]
  viability, T/C: 57.4%
[28]
  viability, T/C: 50.9%
[29]
  viability, T/C: 36.2%
[30]
  viability, T/C: 13.2%
[31]
  viability, T/C: 41.5%
[32]
  viability, T/C: 39.7%
[33]
  viability, T/C: 38.8%
[34]
  viability, T/C: 40%
[35]
  viability, T/C: 26.4%
[36]
  viability, T/C: 9.66%
